Assay results reported in ChEMBL document CHEMBL1129231, “Bone targeted drugs 2. synthesis of estrogens with hydroxyapatite affinity” (Bioorg Med Chem Lett, 1996).

Key:
Estrogen receptor = Estrogen receptor (Rattus norvegicus, UniProt P06211+Q62986); assay: Binding affinity for rat estrogen receptor; assay type: protein assay
Ishikawa = assay: Agonist activity in Ishikawa human endometrial cells; assay type: functional, cell-based
[1] = biological target: Estrogen receptor (Rattus norvegicus) (UniProt P06211+Q62986); assay: Relative efficacy for estrogen receptor compared to estradiol; assay type: protein assay

| Structure (SMILES) | IC50 (Estrogen receptor) [µM] | EC50 (Ishikawa) [µM] | Emax [1] [%] |
| --- | --- | --- | --- |
| CC[C@@H](c1ccc(O)cc1)[C@H](Cn1cc(C(=O)O)c(=O)[nH]1)c1ccc(O)cc1 | 100 | 20 | – |
| CC[C@@H](c1ccc(O)cc1)[C@H](CCCCn1cc(C(=O)O)c(=O)[nH]1)c1ccc(O)cc1 | 5 | 1.1 | – |
| CC[C@H](c1ccc(O)cc1)[C@@H](CC)c1ccc(O)cc1 [HEXESTROL] | 0.002 | 0.0001 | 80 |
| CC[C@@H](c1ccc(O)cc1)[C@H](CCCCn1cc(C(=O)O)cn1)c1ccc(O)cc1 | – | 1.6 | – |
